Our source for the inhibition values is patent US9416115B2, “Fused heterocyclic compounds as ion channel modulators” (Gilead Sciences, Inc., priority 2013, dated 2016).

The structures appear in SMILES notation. Like-named read-outs stand apart in the source and are kept apart here. Where only a bound is given, the exact number is not on record here.

The target of one experiment is hNav1.1 (SCN1A) (Homo sapiens, UniProt P35498). The experiment in a line: Use-dependent inhibition of the CNS Nav1.1 sodium channel. In kind it is cell-based. To be noted: use-dependent block, 25 Hz, pulse 20, read-out: Nav1.1 UDB 25 Hz 10 uM. On the procedure: HEK-293 cells stably expressing wild-type (WT) hNav1.1 (SCN1A, NCBI# AB09354) were obtained from Millipore (Cat. # CYL3009) were used to record INa. Cells are maintained with standard tissue culture procedures and stable channel expression is maintained with 400 ug/mL G418 in the culture medium. Unless otherwise noted, all reagents are purchased from Sigma-Aldrich (St Louis, Mo., U.S.A.).
Assays measuring Use-Dependent Block (UDB) of Nav1.2 are performed on an automated electrophysiology platform, QPatch 16X or QPatch HT (Sophion Bioscience, Copenhagen, Denmark), using the whole cell patch clamp technique to measure currents through the cell membrane. Series resistance compensation is set to 100% and series resistance and whole-cell compensation are performed automatically. Currents stored in the Sophion Bioscience Oracle database (Sophion Bioscience, Copenhagen, Denmark). Analysis is performed using QPatch Assay software and data are compiled in Excel 2010 (Microsoft, Seattle, Wash., U.S.A.).
The internal (pipette) solution consists of (in mM) 105 CsF, 10 NaF, 20 CsCl, 2 EGTA, 10 HEPES, 10 Dextrose with a pH of 7.35 and osmolarity of 300 mOsmol/kg. The external (bath) solution contains in (mM): 145 NaCl, 4 KCl, 1.8 CaCl2, 1 MgCl2, 10 dextrose, 10 HEPES, with a pH of 7.35 and osmolarity of 310 mOsmol/kg. Experiments are carried out at 23-25° C.
Compound stocks are routinely made by the Gilead Sample Bank in vials to 10 mM in dimethyl sulfoxide (DMSO). In some cases, when compounds are not soluble in DMSO, they are made in 100% ethanol. Stocks are sonicated as necessary. […]
Cells are allowed to stabilize for 10 min after establishment of the whole-cell configuration before current is measured. The test compound is applied 2 times at 60 second intervals. After the second compound addition, a 200 second wait period was imposed to allow for equilibration. Leak currents are subtracted by using an online P/4 procedure and all currents are low-pass Bessel filtered at 5 kHz and digitized at […].
Use-dependent block of Nav1.2 peak current is measured during pulse number 20 of a voltage pulse train (0 mV, 20 ms, 20 pulses, 25 Hz) from a holding potential of −120 mV. Currents are normalized to the peak current recorded in response to the first pulse in each frequency train. The voltage protocol for UDB was performed in the absence and presence of compound and percentage inhibition was calculated with respect to the compound free condition. Results are presented as mean percentage inhibition and data analysis is performed using QPatch Assay Software 4.0, and Excel 2002 (Microsoft, Seattle, Wash., U.S.A.).

The target in experiment [1] is wild-type human cardiac sodium channel, hNav1.5 (Homo sapiens, UniProt Q14524). The experiment in a line: Peak INa screening assay (tonic block and use-dependent block). In kind it is cell-based. As to the method:
The cardiac late sodium current (Late INa) and peak sodium current (Peak INa) assays are performed on an automated electrophysiology platform, QPatch 16X or QPatch HT (Sophion Bioscience, Copenhagen, Denmark) using the whole cell patch clamp technique to measure currents through the cell membrane. The assay uses an HEK293 (human embryonic kidney) cell line heterologously expressing the wild-type human cardiac sodium channel, hNav1.5, purchased from Millipore (Billerica, Mass.). No beta subunits were coexpressed with the Na channel alpha subunit. Cells are maintained with standard tissue culture procedures and stable channel expression is maintained with 400 μg/mL Geneticin in the culture medium. Experiments are carried out at 23-25° C.
For both the Late INa and Peak INa assays, series resistance compensation is set to 100% and series resistance and whole-cell compensation are performed automatically. Currents are digitized at 25 kHz and low-pass filtered at 5 kHz and stored in the Sophion Bioscience Oracle database (Sophion Bioscience, Copenhagen, Denmark). Analysis is performed using QPatch Assay software and data are compiled in Excel 2010 (Microsoft, Seattle, Wash., U.S.A.).
Compound stocks are routinely made by the Gilead Sample Bank in vials to 10 mM in dimethyl sulfoxide (DMSO). In some cases, when compounds are not soluble in DMSO, they are made in 100% ethanol. Stocks are sonicated as necessary. The extracellular solution for screening Late INa is composed of: 140 mM NaCl, 4 mM KCl, 1.8 mM CaCl2, 1 mM MgCl2, 10 mM HEPES and 10 mM Dextrose with pH adjusted to 7.35 using NaOH. The intracellular solution contains: 105 mM CsF, 20 mM CsCl, 10NaF, 2 mM EGTA, 10 mM HEPES and 10 mM Dextrose with pH adjusted to 7.35 with CsOH. Compounds are diluted in extracellular solution using a MicroLab Nimbus (Hamilton Robotics, Reno, Nev.) to between 0.3 and 3 μM in glass vials and transferred to glass well plates before robotic addition to the cells. The 0 mM Na extracellular solution (0Na-ECF) used at the end of each experiment for the Late INa and Peak INa assays to measure baseline current contains: 140 Choline-Cl; 4 mM KCl, 1.8 mM CaCl2; 1 mM MgCl2; 10 mM HEPES and 10 mM Dextrose with pH was adjusted to 7.35 with CsOH.
Compounds were evaluated for their effect Nav1.5 Peak INa. It is contemplated that the compounds of Formula I avoid significant block of peak INa. Since the peak INa in the cells used herein can be very large, introducing artifacts in the recording, the concentration of Na^+ in the bath can be reduced to 40 mM by isosmotic replacement of Na^+ with Choline (see below).
Tonic Block (TB) of Peak INa was measured using a voltage step to −20 mV from a holding potential of −100 mV at a low stimulation frequency of 0.1 Hz. Use-Dependent Block (UDB) of Peak INa was measured during pulse number 50 of a pulse train (−20 mV, 20 ms, 50 pulses, 3 Hz) from a holding potential of −100 mV.
The extracellular solution for screening Peak INa is composed of: 40 mM NaCl, 100 mM Choline-Cl, 4 mM KCl, 1.8 mM CaCl2, 1 mM MgCl2 10 mM HEPES and 10 mM Dextrose with pH adjusted to 7.35 using NaOH. The intracellular solution used for the Peak INa assay is the same as outlined for the Late INa assay (see above).
After establishing the whole cell recording configuration, channels were stimulated to open with low frequency (0.1 Hz) so that the recording can be monitored and the extent to which the recording has stabilized can be assessed.
The test compound is then applied at 1 or 3 μM and was added 2 times at 60 second intervals. After the second compound addition, a 200 second wait period was imposed to allow for equilibration. Voltage protocols for TB and UDB are were performed in the absence and presence of compound and TB and UDB are calculated with respect to the compound free condition. Both TB and UDB were analyzed by incorporating rundown correction for the peak INa.

Where [2] appears, read: tonic block of Peak INa, 0.1 Hz, holding -100 mV, read-out: Peak TB 3 uM.
The mark [3] stands for this setting: use-dependent block of Peak INa, 3 Hz, pulse 50, read-out: Peak UDB 3 Hz 3 uM.

wild-type human cardiac sodium channel, hNav1.5, sequence (Q14524 whole entry): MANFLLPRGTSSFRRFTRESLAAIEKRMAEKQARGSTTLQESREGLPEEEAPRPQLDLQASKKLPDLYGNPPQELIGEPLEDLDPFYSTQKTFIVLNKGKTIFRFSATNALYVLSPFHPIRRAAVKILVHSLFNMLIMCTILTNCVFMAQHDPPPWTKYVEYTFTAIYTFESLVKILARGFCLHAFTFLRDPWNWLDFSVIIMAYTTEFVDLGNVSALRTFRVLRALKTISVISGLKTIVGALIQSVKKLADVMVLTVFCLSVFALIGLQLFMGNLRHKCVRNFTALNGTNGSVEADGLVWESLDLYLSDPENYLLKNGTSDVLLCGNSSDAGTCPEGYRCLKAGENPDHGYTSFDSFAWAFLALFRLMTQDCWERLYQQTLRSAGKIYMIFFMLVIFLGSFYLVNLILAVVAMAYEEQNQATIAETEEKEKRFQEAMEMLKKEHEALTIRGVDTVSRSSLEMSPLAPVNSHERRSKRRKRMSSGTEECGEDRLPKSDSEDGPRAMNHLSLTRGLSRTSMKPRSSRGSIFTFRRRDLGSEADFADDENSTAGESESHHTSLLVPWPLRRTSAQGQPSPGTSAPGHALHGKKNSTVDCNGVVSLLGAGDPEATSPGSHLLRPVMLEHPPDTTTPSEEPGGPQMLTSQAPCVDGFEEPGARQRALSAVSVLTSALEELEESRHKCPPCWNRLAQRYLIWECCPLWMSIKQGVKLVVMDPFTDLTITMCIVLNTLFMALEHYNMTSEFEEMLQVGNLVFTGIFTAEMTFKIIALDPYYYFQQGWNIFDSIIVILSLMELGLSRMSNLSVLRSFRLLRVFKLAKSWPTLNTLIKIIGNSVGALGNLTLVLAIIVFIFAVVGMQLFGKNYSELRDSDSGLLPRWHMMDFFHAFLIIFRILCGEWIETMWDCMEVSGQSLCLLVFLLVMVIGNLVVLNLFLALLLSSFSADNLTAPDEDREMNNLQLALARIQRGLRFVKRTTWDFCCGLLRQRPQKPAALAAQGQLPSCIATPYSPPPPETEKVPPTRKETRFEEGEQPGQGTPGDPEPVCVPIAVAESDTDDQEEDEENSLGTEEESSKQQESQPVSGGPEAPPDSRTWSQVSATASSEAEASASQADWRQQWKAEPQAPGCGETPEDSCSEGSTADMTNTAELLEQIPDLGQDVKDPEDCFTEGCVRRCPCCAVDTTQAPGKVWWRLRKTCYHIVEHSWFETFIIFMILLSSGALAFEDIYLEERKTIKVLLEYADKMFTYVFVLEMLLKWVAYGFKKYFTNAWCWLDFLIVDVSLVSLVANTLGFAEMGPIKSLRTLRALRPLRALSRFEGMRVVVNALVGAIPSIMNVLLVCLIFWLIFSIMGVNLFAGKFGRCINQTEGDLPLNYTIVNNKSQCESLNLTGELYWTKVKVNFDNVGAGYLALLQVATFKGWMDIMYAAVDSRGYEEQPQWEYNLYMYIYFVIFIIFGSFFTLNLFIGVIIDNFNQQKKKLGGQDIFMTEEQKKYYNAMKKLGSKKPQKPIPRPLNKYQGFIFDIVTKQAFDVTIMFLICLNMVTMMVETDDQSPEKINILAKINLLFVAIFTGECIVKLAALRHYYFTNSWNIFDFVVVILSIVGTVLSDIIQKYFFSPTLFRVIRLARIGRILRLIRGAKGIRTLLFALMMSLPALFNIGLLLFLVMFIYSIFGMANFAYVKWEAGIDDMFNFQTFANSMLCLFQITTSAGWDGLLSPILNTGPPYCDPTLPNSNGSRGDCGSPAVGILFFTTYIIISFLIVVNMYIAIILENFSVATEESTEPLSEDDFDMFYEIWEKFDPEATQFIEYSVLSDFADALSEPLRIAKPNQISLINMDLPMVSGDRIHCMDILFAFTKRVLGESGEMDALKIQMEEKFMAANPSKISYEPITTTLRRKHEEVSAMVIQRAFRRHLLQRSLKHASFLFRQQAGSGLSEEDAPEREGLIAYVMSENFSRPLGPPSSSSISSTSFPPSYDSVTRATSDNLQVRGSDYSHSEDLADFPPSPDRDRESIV

On to `FC(F)(F)Oc1ccc(-c2ccc3onc(OCc4ncccn4)c3c2)cc1` [Example 1, 3-(pyrimidin-2-ylmethoxy)-5-(4-(trifluoromethoxy)phenyl)benzo[d]isoxazole], for which, on hNav1.1 (SCN1A), the inhibition at 10 µM was determined as 5.5%.

With `Cc1cc(OC(F)(F)F)ccc1-c1ccc2onc(OCc3ncccn3)c2c1` [Example 3, 5-(2-methyl-4-(trifluoromethoxy)phenyl)-3-(pyrimidin-2-ylmethoxy)benzo[d]isoxazole], the inhibition at 10 µM on hNav1.1 (SCN1A) was under 5%. Besides, the inhibition at 3 µM was determined as 23.2% in experiment [1] (setting [2]) and 11.8% in experiment [1] (setting [3]).

As for `COc1cc(OC(F)(F)F)ccc1-c1ccc2onc(OCc3ncccn3)c2c1` [Example 4, 5-(2-methoxy-4-(trifluoromethoxy)phenyl)-3-(pyrimidin-2-ylmethoxy)benzo[d]isoxazole], the inhibition at 10 µM on hNav1.1 (SCN1A) was found to be 14.2%. The inhibition at 3 µM in experiment [1] (setting [2]) was 38%; in experiment [1] (setting [3]), 17.9%.

Turning to `Cc1ccnc(COc2noc3ccc(-c4ccc(OC(F)(F)F)cc4)cc23)n1` [Example 5, 3-((4-methylpyrimidin-2-yl)methoxy)-5-(4-(trifluoromethoxy)phenyl)benzo[d]isoxazole], the inhibition at 10 µM at hNav1.1 (SCN1A) is under 5%. Besides, the inhibition at 3 µM is 18% in experiment [1] (setting [2]) and under 5% in experiment [1] (setting [3]).

Consider `Fc1cc(C(F)(F)F)ccc1-c1ccc2onc(OCc3ncccn3)c2c1` [Example 6, 5-(2-fluoro-4-(trifluoromethyl)phenyl)-3-(pyrimidin-2-ylmethoxy)benzo[d]isoxazole], for which the inhibition at 10 µM at hNav1.1 (SCN1A) is under 5%. The inhibition at 3 µM in experiment [1] (setting [2]) is 29.8%; in experiment [1] (setting [3]) it was 12.6%.

In the case of `Cc1cc(-c2ccc3onc(OCc4ncccn4)c3c2)ccc1OC(F)(F)F` [Example 7, 5-(3-methyl-4-(trifluoromethoxy)phenyl)-3-(pyrimidin-2-ylmethoxy)benzo[d]isoxazole], the inhibition at 10 µM on hNav1.1 (SCN1A) is under 5%. Also, the results for the inhibition at 3 µM in experiment [1] (setting [2]) and in experiment [1] (setting [3]) were 16.3% and under 5%, respectively.

As to `Fc1cc(-c2ccc3onc(OCc4ncccn4)c3c2)ccc1Cl` [Example 8, 5-(4-chloro-3-fluorophenyl)-3-(pyrimidin-2-ylmethoxy)benzo[d]isoxazole], the inhibition at 10 µM on hNav1.1 (SCN1A) was under 5%. Moreover, the inhibition at 3 µM was 13.1% in experiment [1] (setting [2]) and under 5% in experiment [1] (setting [3]).

For `FC(F)(F)c1ccc(-c2ccc3onc(OCc4ncccn4)c3c2)cc1` [Example 9, 3-(pyrimidin-2-ylmethoxy)-5-(4-(trifluoromethyl)phenyl)benzo[d]isoxazole], the inhibition at 10 µM on hNav1.1 (SCN1A) is under 5%. Also, the inhibition at 3 µM is 41.3% in experiment [1] (setting [2]) and 10.3% in experiment [1] (setting [3]).

For `FC(F)(F)Oc1cccc(-c2ccc3onc(OCc4ncccn4)c3c2)c1` [Example 10, 3-(pyrimidin-2-ylmethoxy)-5-(3-(trifluoromethoxy)phenyl)benzo[d]isoxazole], at hNav1.1 (SCN1A), the inhibition at 10 µM was under 5%. Besides, the inhibition at 3 µM in experiment [1] (setting [2]) was found to be 16.4%; in experiment [1] (setting [3]) it was 5.7%.

With `COc1cc2onc(OCc3ncccn3)c2cc1-c1ccc(Cl)c(F)c1` [Example 13, 5-(4-chloro-3-fluorophenyl)-6-methoxy-3-(pyrimidin-2-ylmethoxy)benzo[d]isoxazole], the inhibition at 10 µM at hNav1.1 (SCN1A) is 30.8%. Also, the inhibition at 3 µM in experiment [1] (setting [2]) was 10.7%; in experiment [1] (setting [3]) it was under 5%.

Consider `COc1cc2onc(OCc3ncccn3)c2cc1-c1ccc(OC(F)(F)F)c(C)c1` [Example 14, 6-methoxy-5-(3-methyl-4-(trifluoromethoxy)phenyl)-3-(pyrimidin-2-ylmethoxy)benzo[d]isoxazole], for which, at hNav1.1 (SCN1A), the inhibition at 10 µM was 34.5%. Further, the inhibition at 3 µM in experiment [1] (setting [2]) is 23.8%; in experiment [1] (setting [3]), 6.4%.

For `COc1cc2onc(OCc3ncccn3)c2cc1-c1ccc(F)c(Cl)c1` [Example 15, 5-(3-chloro-4-fluorophenyl)-6-methoxy-3-(pyrimidin-2-ylmethoxy)benzo[d]isoxazole], the inhibition at 10 µM at hNav1.1 (SCN1A) is under 5%. For the same molecule, the inhibition at 3 µM in experiment [1] (setting [2]) was 14.3%; in experiment [1] (setting [3]), under 5%.

Consider `Cc1cc(-c2ccc(OC(F)(F)F)cc2)cc2c(OCc3ncccn3)noc12` [Example 16, 7-methyl-3-(pyrimidin-2-ylmethoxy)-5-(4-(trifluoromethoxy)phenyl)benzo[d]isoxazole], for which the inhibition at 10 µM on hNav1.1 (SCN1A) was 27.3%. Moreover, the inhibition at 3 µM is 35.8% in experiment [1] (setting [2]) and under 5% in experiment [1] (setting [3]).

Turning to `COc1cc(-c2ccc(OC(F)(F)F)cc2)cc2c(OCc3ncccn3)noc12` [Example 22, 7-methoxy-3-(pyrimidin-2-ylmethoxy)-5-(4-(trifluoromethoxy)phenyl)benzo[d]isoxazole], on hNav1.1 (SCN1A), the inhibition at 10 µM stood at 28.1%. The inhibition at 3 µM in experiment [1] (setting [2]) is 10.2%; in experiment [1] (setting [3]), under 5%.

As to `Cc1cc2onc(OCc3ncccn3)c2cc1-c1ccc(C(F)(F)F)cc1F` [Example 28, 5-(2-fluoro-4-(trifluoromethyl)phenyl)-6-methyl-3-(pyrimidin-2-ylmethoxy)benzo[d]isoxazole], the inhibition at 10 µM at hNav1.1 (SCN1A) was under 5%. For the same molecule, the inhibition at 3 µM in experiment [1] (setting [2]) is 21.6%; in experiment [1] (setting [3]) it was under 5%.

`FC(F)(F)Oc1ccc(-c2ccc3onc(OCC4CCO4)c3c2)cc1` (stereo not shown) [Example 42, 3-(oxetan-2-ylmethoxy)-5-(4-(trifluoromethoxy)phenyl)benzo[d]isoxazole]: on hNav1.1 (SCN1A), the inhibition at 10 µM is under 5%. In addition, the inhibition at 3 µM was 27.6% in experiment [1] (setting [2]) and under 5% in experiment [1] (setting [3]).
